The structures appear in SMILES notation. In brackets after ≈: the same amount, converted by molar mass. Read-outs that look alike come from different tables or passages of the source. Peptide text beside a SMILES is read from it. * marks the point of attachment. X2 = NC[C@@H]1O[C@H](O[C@H]2[C@@H](O)[C@H](O[C@@H]3[C@@H](O)[C@H](N)C[C@H](N)[C@H]3O[C@H]3O[C@H](CN)[C@@H](O)[C@H](O)[C@H]3N)O[C@@H]2CS*)[C@H](N)[C@@H](O)[C@@H]1O

These results are taken from paper PMC10233823, “Conjugates of Aminoglycosides with Stapled Peptides as a Way to Target Antibiotic-Resistant Bacteria” (ACS Omega, 2023).

Holding throughout (assay): microbe, parasite or virus in culture
Experiment [1] concerns E. coli K12 MG1655. The class given is cell-based, Escherichia coli. Conditions: MIC wells diluted 10-, 100-, 1000-times in fresh MHB, 24 h, 37 °C, bactericidal if no growth at 100- and 1000-times dilutions. How it is done: (§1) The antibacterial activity of the conjugates was assessed by determining their minimum inhibitory concentration (MIC) and minimum bactericidal concentration (MBC) against Gram-negative E. coli (K12 MG 1655 and WR 3551/98) and Gram-positive S. aureus (ATCC 29213 and ATCC BAA1720 MRSA) strains (Table 1, Figures S16–S23).
(§2) The MBC values were determined by diluting wells from the MIC experiment plate in fresh MHB medium. Dilutions of 10-, 100-, and 1000-times were prepared for the MIC well and up to two-folds higher than MIC concentrations of a given compound. Dilutions were made on a transparent flat-bottom 96-well plate (Nest), which was then sealed and incubated for 24 h, at 37 °C with shaking. The growth of a given sample well was compared with GC and SC controls.

Experiment [2] concerns E. coli WR 3551/98. The format is cell-based, Escherichia coli. The note with it: 24 h, 37 °C. How it is done:
as §1, §2

For experiment [3], the system named is S. aureus ATCC 29213. The class given is cell-based, Staphylococcus aureus. Conditions: 20 h, 37 °C with shaking, OD600. How it is done: as §1
(§3) The MIC values were determined as follows. Bacteria were first cultured overnight in 2 mL of lysogeny broth (LB, VWR Chemicals) at 37 °C with shaking. Next, 20 μL of overnight culture was transferred into 2 mL of […] (MHB, Difco) medium and further cultured at 37 °C with shaking until the culture reached OD600 = 0.3. Subsequently, the culture was diluted 1:100 in a fresh MHB medium, and aliquots of 50 μL were mixed with 50 μL of previously prepared dilutions of the tested compound in MHB on a transparent flat-bottom 96-well plate (Nest). The plate was then sealed with transparent foil (Titer-Tops) and incubated for 20 h, at 37 °C with shaking. Following incubation, optical density at 600 nm was measured using a Tecan Sunrise plate reader. Growth inhibition was determined by comparing the given sample with untreated culture (growth control—GC) with MHB alone (sterility control—SC) as an additional reference. The experiment was conducted in at least two biological replicates of two technical replicates each. Statistical significance was determined by the two-way ANOVA test using GraphPad Prism 9 software.

Experiment [4] relates to S. aureus ATCC BAA1720 MRSA. The format is cell-based, Staphylococcus aureus. The note with it: S. aureus ATCC BAA1720 MRSA (NEO-resistant), MHB, 20 h, 37 °C with shaking, OD600. The method, then: as §1, §3
For experiment [5], the system named is S. aureus ATCC 29213. The format is cell-based, Staphylococcus aureus. Conditions: 24 h, 37 °C. The method, then: as §1, §2
Experiment [6] deals with S. aureus ATCC BAA1720 MRSA. The format is cell-based, Staphylococcus aureus. The note with it: MIC wells diluted in fresh MHB, 24 h, 37 °C. How it is done: as §1, §2
For experiment [7], the system named is E. coli K12 MG1655. The format is cell-based, Escherichia coli. The note with it: MHB, 20 h, 37 °C with shaking, OD600, at least two biological replicates of two technical replicates. The method, then: as §1, §3
Experiment [8] relates to E. coli WR 3551/98. The format is cell-based, Escherichia coli. The note with it: for MIC: E. coli WR 3551/98 (AMK-resistant), MHB, 20 h, 37 °C with shaking, OD600. How it is done: as §1, §3
The mark [9] stands for this setting: MIC wells diluted in fresh MHB, read-out: MBC.
The mark [10] stands for this setting: Escherichia coli, read-out: MBC.
Setting [11] is: Escherichia coli, WR3551/98, MIC wells diluted in fresh MHB, read-out: MBC.
[12] abbreviates: Staphylococcus aureus, ATCC29213, MHB.
[13] abbreviates: Staphylococcus aureus, ATCC29213, MIC wells diluted in fresh MHB, read-out: MBC.

Consider `CC[C@H](C)[C@H](NC(=O)[C@H](CCCNC(=N)N)NC(=O)[C@H](CCCCN)NC(=O)[C@H](CC(C)C)NC(=O)[C@H](CC(C)C)NC(=O)CNC(=O)CCCCCCCCc1cn(C[C@H]2O[C@H](O[C@@H]3[C@@H](O)[C@H](O[C@H]4O[C@H](CN)[C@@H](O)[C@H](O)[C@H]4O)[C@@H](N)C[C@H]3NC(=O)[C@@H](O)CCN)[C@H](O)[C@@H](N)[C@@H]2O)nn1)C(=O)N[C@@H](CCCCN)C(=O)N[C@H](C(=O)N[C@@H](CC(C)C)C(=O)N[C@@H](CC(C)C)C(N)=O)[C@@H](C)O` [AMK-anoplin] (HELM PEPTIDE1{[NCC[C@H](O)C(=O)N[C@@H]1C[C@H](N)[C@@H](O[C@H]2O[C@H](CN)[C@@H](O)[C@H](O)[C@H]2O)[C@H](O)[C@H]1O[C@H]1O[C@H](Cn2cc(CCCCCCCCC(=O)[*:2])nn2)[C@@H](O)[C@H](N)[C@H]1O].G.L.L.K.R.I.K.T.L.L.[am]}$$$$V2.0), for which the MBC is 16 µM (≈ 30.9 µg/mL) in the experiment on E. coli K12 MG1655 [1] (read-out: MBC), 16 to 32 µM against E. coli WR 3551/98 [2] (MIC wells diluted in fresh MHB), more than 32 µM with S. aureus ATCC 29213 [5] (setting [9]) and more than 32 µM in experiment [6]. Also, the MIC is 32 µM (≈ 61.7 µg/mL) in the experiment with S. aureus ATCC 29213 [3] (MHB), more than 32 µM in experiment [4], 16 µM (≈ 30.9 µg/mL) in the experiment with E. coli K12 MG1655 [7] and 16 µM (≈ 30.9 µg/mL) against E. coli WR 3551/98 [8].
Take `CC[C@H](C)[C@H](NC(=O)[C@H](CCCNC(=N)N)NC(=O)[C@H](CCCCN)NC(=O)[C@H](CC(C)C)NC(=O)[C@H](CC(C)C)NC(=O)CNC(=O)[C@@H](N)CSSC[C@H]1O[C@@H](O[C@@H]2[C@@H](O)[C@H](N)C[C@H](N)[C@H]2O[C@H]2O[C@H](CN)[C@@H](O)[C@H](O)[C@H]2N)[C@H](O)[C@@H]1O[C@H]1O[C@@H](CN)[C@@H](O)[C@H](O)[C@H]1N)C(=O)N[C@@H](CCCCN)C(=O)N[C@H](C(=O)N[C@@H](CC(C)C)C(=O)N[C@@H](CC(C)C)C(N)=O)[C@@H](C)O` [NEO-SS-anoplin] (H-C(X2)GLLKRIKTLL-NH2): the MBC in the experiment on E. coli K12 MG1655 [1] (read-out: MBC) is given as 8 µM (≈ 15.1 µg/mL); with E. coli WR 3551/98 [2] (setting [9]) it was 16 µM (≈ 30.2 µg/mL); in the experiment with S. aureus ATCC 29213 [5] (setting [9]) it was 8 µM (≈ 15.1 µg/mL); in experiment [6], more than 32 µM. For the same compound, the MIC is reported as 4 µM (≈ 7.54 µg/mL) against S. aureus ATCC 29213 [3] (MHB), more than 32 µM in experiment [4], 8 µM (≈ 15.1 µg/mL) against E. coli K12 MG1655 [7] and 8 µM (≈ 15.1 µg/mL) against E. coli WR 3551/98 [8].
On to `CC[C@H](C)[C@H](NC(=O)[C@H](CCCNC(=N)N)NC(=O)[C@H](CCCCN)NC(=O)[C@H](CC(C)C)NC(=O)[C@H](CC(C)C)NC(=O)CNC(=O)CCCCCCCCc1cn(C[C@H]2O[C@@H](O[C@@H]3[C@@H](O)[C@H](N)C[C@H](N)[C@H]3O[C@H]3O[C@H](CN)[C@@H](O)[C@H](O)[C@H]3N)[C@H](O)[C@@H]2O[C@H]2O[C@@H](CN)[C@@H](O)[C@H](O)[C@H]2N)nn1)C(=O)N[C@@H](CCCCN)C(=O)N[C@H](C(=O)N[C@@H](CC(C)C)C(=O)N[C@@H](CC(C)C)C(N)=O)[C@@H](C)O` [NEO-anoplin] (HELM PEPTIDE1{[NC[C@@H]1O[C@H](O[C@H]2[C@@H](O)[C@H](O[C@@H]3[C@@H](O)[C@H](N)C[C@H](N)[C@H]3O[C@H]3O[C@H](CN)[C@@H](O)[C@H](O)[C@H]3N)O[C@@H]2Cn2cc(CCCCCCCCC(=O)[*:2])nn2)[C@H](N)[C@@H](O)[C@@H]1O].G.L.L.K.R.I.K.T.L.L.[am]}$$$$V2.0), for which the MBC in the experiment with E. coli K12 MG1655 [1] is 8 to 16 µM; in the experiment on E. coli WR 3551/98 [2] (setting [9]) it was 16 µM (≈ 31.3 µg/mL); in the experiment with S. aureus ATCC 29213 [5] (MIC wells diluted in fresh MHB), 16 to 32 µM; in experiment [6] it was 32 µM (≈ 62.6 µg/mL). In addition, the MIC with S. aureus ATCC 29213 [3] (MHB) was 16 µM (≈ 31.3 µg/mL); in experiment [4], 32 µM (≈ 62.6 µg/mL); in the experiment with E. coli K12 MG1655 [7], 8 µM (≈ 15.7 µg/mL); in the experiment with E. coli WR 3551/98 [8], 16 µM (≈ 31.3 µg/mL).
Turning to `NCC[C@H](O)C(=O)N[C@@H]1C[C@H](N)[C@@H](O[C@H]2O[C@H](CN)[C@@H](O)[C@H](O)[C@H]2O)[C@H](O)[C@H]1O[C@H]1O[C@H](CO)[C@@H](O)[C@H](N)[C@H]1O` [amikacin (AMK), amikacin, reference compound], the MBC in the experiment with E. coli K12 MG1655 [1] (setting [10]) was 8 to 16 µM (≈ 4.68 to 9.37 µg/mL); with E. coli WR 3551/98 [2] (setting [11]), more than 32 µM; in the experiment with S. aureus ATCC 29213 [5] (setting [13]) it was 8 µM (≈ 4.68 µg/mL); in experiment [6] (Staphylococcus aureus) it was not below 32 µM. For the same compound, the MIC against S. aureus ATCC 29213 [3] (setting [12]) is 8 µM (≈ 4.68 µg/mL); in experiment [4] (Staphylococcus aureus) it was 32 µM (≈ 18.7 µg/mL); in the experiment on E. coli K12 MG1655 [7] (Escherichia coli) it was 4 µM (≈ 2.34 µg/mL); in the experiment with E. coli WR 3551/98 [8], more than 32 µM; against E. coli WR 3551/98 [8] (Escherichia coli, WR3551/98), more than 32 µM.
On to `CC[C@H](C)[C@H](NC(=O)[C@H](CCCNC(=N)N)NC(=O)[C@H](CCCCN)NC(=O)[C@H](CC(C)C)NC(=O)[C@H](CC(C)C)NC(=O)CNC(=O)[C@@H](N)CSSC[C@H](N)C(=O)NCC(=O)N[C@@H](CC(C)C)C(=O)N[C@@H](CC(C)C)C(=O)N[C@@H](CCCCN)C(=O)N[C@@H](CCCNC(=N)N)C(=O)N[C@H](C(=O)N[C@@H](CCCCN)C(=O)N[C@H](C(=O)N[C@@H](CC(C)C)C(=O)N[C@@H](CC(C)C)C(N)=O)[C@@H](C)O)[C@@H](C)CC)C(=O)N[C@@H](CCCCN)C(=O)N[C@H](C(=O)N[C@@H](CC(C)C)C(=O)N[C@@H](CC(C)C)C(N)=O)[C@@H](C)O` [anoplin-SS-anoplin] (HELM PEPTIDE1{C.G.L.L.K.R.I.K.T.L.L.[am]}|PEPTIDE2{C.G.L.L.K.R.I.K.T.L.L.[am]}$PEPTIDE1,PEPTIDE2,1:R3-1:R3$$$V2.0), for which the MBC in the experiment with E. coli K12 MG1655 [1] (read-out: MBC) was determined as 8 µM (≈ 20.1 µg/mL); in the experiment with E. coli WR 3551/98 [2] (setting [9]), 2 µM (≈ 5.02 µg/mL); in the experiment on S. aureus ATCC 29213 [5] (setting [9]), 32 µM (≈ 80.4 µg/mL); in experiment [6], 32 µM (≈ 80.4 µg/mL). Moreover, the MIC stood at 16 µM (≈ 40.2 µg/mL) in the experiment on S. aureus ATCC 29213 [3] (MHB), 16 µM (≈ 40.2 µg/mL) in experiment [4], 4 µM (≈ 10 µg/mL) against E. coli K12 MG1655 [7] and 1 µM (≈ 2.51 µg/mL) against E. coli WR 3551/98 [8]. Further, the “MIC enhancement compared to anoplin monomer” value with E. coli WR 3551/98 [8] (E. coli WR 3551/98) is recorded as 32 fold.
Take `NC[C@@H]1O[C@H](O[C@H]2[C@@H](O)[C@H](O[C@@H]3[C@@H](O)[C@H](N)C[C@H](N)[C@H]3O[C@H]3O[C@H](CN)[C@@H](O)[C@H](O)[C@H]3N)O[C@@H]2CO)[C@H](N)[C@@H](O)[C@@H]1O` [neomycin (NEO), neomycin, reference compound]: the MBC was 4 µM (≈ 2.46 µg/mL) with E. coli K12 MG1655 [1] (setting [10]), 8 µM (≈ 4.92 µg/mL) with E. coli WR 3551/98 [2] (setting [11]), 2 µM (≈ 1.23 µg/mL) in the experiment on S. aureus ATCC 29213 [5] (setting [13]) and more than 32 µM in experiment [6] (Staphylococcus aureus). In addition, the MIC in the experiment with S. aureus ATCC 29213 [3] (setting [12]) is 1 µM (≈ 0.615 µg/mL); in experiment [4] (Staphylococcus aureus), more than 32 µM; with E. coli K12 MG1655 [7] (Escherichia coli) it was 4 µM (≈ 2.46 µg/mL); in the experiment with E. coli WR 3551/98 [8] (Escherichia coli, WR3551/98), 4 µM (≈ 2.46 µg/mL).
